In the first experiment the test system is SARS-CoV-2 strain USA-WA1/2020. The experiment can be described thus: microbe, parasite or virus in culture. Format: cell-based. Conditions: Severe acute respiratory syndrome coronavirus 2, HeLa-ACE2, 24 h, HeLa-ACE2 cells, SARS-CoV-2 infection, 24 h; class symbols; read-out: EC50, uM (Hela).
In general, EC50 refers to the concentration needed to bring the measured effect to its halfway point. As for `O=C1NCC[C@H]1C[C@H](NC(=O)[C@@H]1CC2(CC2)CN1C(=O)C(O)c1cc(F)c(F)c(F)c1)C(=O)COC(F)(F)F` (stereo partly drawn) [Compound 399, (6S)-5-(2-hydroxy-2-(3,4,5-trifluorophenyl)acetyl)-N-((S)-3-oxo-1-((S)-2-oxopyrrolidin-3-yl)-4-(trifluoromethoxy)butan-2-yl)-5-azaspiro[2.4]heptane-6-carboxamide], the EC50 was in the range of 0.05 to 0.2 µM. On the same count and under the same terms, next, `CC(C)C[C@H](NC(=O)OCc1cccc(Cl)c1)C(=O)N[C@@H](C[C@@H]1CCNC1=O)C(=O)COC(F)(F)F` [Compound 199, 3-chlorobenzyl ((S)-4-methyl-1-oxo-1-(((S)-3-oxo-1-((S)-2-oxopyrrolidin-3-yl)-4-(trifluoromethoxy)butan-2-yl)amino)pentan-2-yl)carbamate]: less than 0.05 µM.

Regarding `CC(C)C[C@H](NC(=O)c1cc(-c2ccccc2F)on1)C(=O)N[C@@H](C[C@@H]1CCNC1=O)C(=O)COc1c(F)c(F)cc(F)c1F` [Compound 67, 5-(2-fluorophenyl)-N-((S)-4-methyl-1-oxo-1-(((S)-3-oxo-1-((S)-2-oxopyrrolidin-3-yl)-4-(2,3,5,6-tetrafluorophenoxy)butan-2-yl)amino)pentan-2-yl)isoxazole-3-carboxamide], the EC50 lay in the range of 0.2 to 0.5 µM. In the case of `O=C(N[C@@H](CC1CC1)C(=O)N[C@@H](C[C@@H]1CCNC1=O)C(=O)COC(F)(F)F)c1cc(-c2ccccc2F)on1` [Compound 160, N-((S)-3-cyclopropyl-1-oxo-1-(((S)-3-oxo-1-((S)-2-oxopyrrolidin-3-yl)-4-(trifluoromethoxy)butan-2-yl)amino)propan-2-yl)-5-(2-fluorophenyl)isoxazole-3-carboxamide], the EC50 was less than 0.05 µM. Still for that read-out and setting: next, `CC(C)C[C@H](NC(=O)C(=O)NC1CC(F)(F)C1)C(=O)N[C@@H](C[C@@H]1CCNC1=O)C(=O)COC(F)(F)F` [Compound 205, Nl-(3,3-difluorocyclobutyl)-N2-((S)-4-methyl-1-oxo-1-(((S)-3-oxo-1-((S)-2-oxopyrrolidin-3-yl)-4-(trifluoromethoxy)butan-2-yl)amino)pentan-2-yl)oxalamide]: less than 0.05 µM.

Staying with this experiment, now noted: Severe acute respiratory syndrome coronavirus 2, HeLa-ACE2, 24 h, HeLa-ACE2 cells, SARS-CoV-2 infection, 24 h; read-out: EC50, uM (Hela).
On to `O=C(Nc1ccccc1F)C(=O)N1CC2(C[C@H]1C(=O)N[C@@H](C[C@@H]1CCNC1=O)C(=O)COC(F)(F)F)CC2(F)F` (stereo partly drawn) [Compound 482, (6S)-1,1-difluoro-5-(2-((2-fluorophenyl)amino)-2-oxoacetyl)-N-((S)-3-oxo-1-((S)-2-oxopyrrolidin-3-yl)-4-(trifluoromethoxy)butan-2-yl)-5-azaspiro[2.4]heptane-6-carboxamide], for which the 50% effective concentration (EC50) was in the range of 0.05 to 0.2 µM. Take `O=C(N[C@@H](CC1CC1)C(=O)N[C@@H](C[C@@H]1CCNC1=O)C(=O)COC(F)(F)F)C(=O)NC1(C(F)(F)F)CC1` [Compound 512, N1-((S)-3-cyclopropyl-1-oxo-1-(((S)-3-oxo-1-((S)-2-oxopyrrolidin-3-yl)-4-(trifluoromethoxy)butan-2-yl)amino)propan-2-yl)-N2-(1-(trifluoromethyl)-cyclopropyl)-oxalamide]: the EC50 was 0.05 to 0.2 µM. On the same count and under the same terms, next, `CC(F)(F)CNC(=O)C(=O)N1C[C@H]2[C@@H]([C@H]1C(=O)N[C@@H](C[C@@H]1CCNC1=O)C(=O)COC(F)(F)F)C2(C)C` [Compound 484, (1R,2S,5S)-3-(2-((2,2-difluoropropyl)amino)-2-oxoacetyl)-6,6-dimethyl-N-((S)-3-oxo-1-((S)-2-oxopyrrolidin-3-yl)-4-(trifluoromethoxy)butan-2-yl)-3-azabicyclo[3.1.0]-hexane-2-carboxamide]: 0.05 to 0.2 µM.

For `CC(C)C[C@@H](O)C(=O)N1C[C@@H](CC2CCC2)C[C@H]1C(=O)N[C@@H](C[C@@H]1CCNC1=O)C(=O)COC(F)(F)F` [Compound 772, (2S,4S)-4-(cyclobutylmethyl)-1-((R)-2-hydroxy-4-methylpentanoyl)-N-((S)-3-oxo-1-((S)-2-oxopyrrolidin-3-yl)-4-(trifluoromethoxy)butan-2-yl)pyrrolidine-2-carboxamide], the 50% effective concentration (EC50) is less than 0.05 µM.

Source of the values: patent US11708348B2, “Protease inhibitors for treatment of coronavirus infections” (The Scripps Research Institute, priority 2021, dated 2023).
